Measured values: patent US11174268B2, “Benzenesulfonamide compouds and their use as therapeutic agents” (Xenon Pharmaceuticals Inc., priority 2016, dated 2021)
pIC50: −log10 of the molar value. Structures can show the parent of a compound that is named as a salt.

Key:
NaV1.6 [1] = target: T1, NaV1.6 (Homo sapiens (Human), UniProt Q9UQD0); assay: Electrophysiological Assay (EP), patch voltage clamp, NaV1.6; assay type: cell-based; details: HEK-293 cells, whole-cell patch clamp;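 note: sodium current recorded at ambient temperature, channels held inactivated then briefly repolarized to −150 mV for 20 ms before a test pulse, control currents in 0.5% DMSO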
NaV1.5 = NaV1.5 (Homo sapiens (Human), UniProt Q14524); assay: Sodium Influx Assay (Flux), NaV1.5; details: read-out: Flux NaV1.5 IC50; Trex HEK293 cells, ANG2 dye, inactivated state
NaV1.1 [2] = target: T2, NaV1.1 (Homo sapiens (Human), UniProt P35498); assay: Electrophysiological Assay (EP), patch voltage clamp, NaV1.1; assay type: cell-based; details: HEK-293 cells, whole-cell patch clamp;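 note: sodium current block measured at ambient temperature, holding at fully inactivating potential, 20 ms repolarization to −150 mV before test pulse, versus 0.5% DMSO control currents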
NaV1.1 [3] = target: T2, NaV1.1; assay: Sodium Influx Assay (Flux), NaV1.1; assay type: cell-based; details: Trex HEK293 cells, ANG2 dye, inactivated state;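 note: channels co-expressed with human β1 subunit and held open by modulators, cells exposed to compounds for one hour at room temperature, IC50 from percent inhibition of influx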
NaV1.6 [4] = target: T1, NaV1.6; assay: Sodium Influx Assay (Flux), NaV1.6; assay type: cell-based; details: Trex HEK293 cells, ANG2 dye, inactivated state;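 note: Tetracycline-induced cells, compounds applied for one hour at room temperature with modulators holding channels open, IC50 from percent inhibition of sodium influx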

NaV1.5, sequence (Q14524 other isoform, or with tags, fused parts or gaps): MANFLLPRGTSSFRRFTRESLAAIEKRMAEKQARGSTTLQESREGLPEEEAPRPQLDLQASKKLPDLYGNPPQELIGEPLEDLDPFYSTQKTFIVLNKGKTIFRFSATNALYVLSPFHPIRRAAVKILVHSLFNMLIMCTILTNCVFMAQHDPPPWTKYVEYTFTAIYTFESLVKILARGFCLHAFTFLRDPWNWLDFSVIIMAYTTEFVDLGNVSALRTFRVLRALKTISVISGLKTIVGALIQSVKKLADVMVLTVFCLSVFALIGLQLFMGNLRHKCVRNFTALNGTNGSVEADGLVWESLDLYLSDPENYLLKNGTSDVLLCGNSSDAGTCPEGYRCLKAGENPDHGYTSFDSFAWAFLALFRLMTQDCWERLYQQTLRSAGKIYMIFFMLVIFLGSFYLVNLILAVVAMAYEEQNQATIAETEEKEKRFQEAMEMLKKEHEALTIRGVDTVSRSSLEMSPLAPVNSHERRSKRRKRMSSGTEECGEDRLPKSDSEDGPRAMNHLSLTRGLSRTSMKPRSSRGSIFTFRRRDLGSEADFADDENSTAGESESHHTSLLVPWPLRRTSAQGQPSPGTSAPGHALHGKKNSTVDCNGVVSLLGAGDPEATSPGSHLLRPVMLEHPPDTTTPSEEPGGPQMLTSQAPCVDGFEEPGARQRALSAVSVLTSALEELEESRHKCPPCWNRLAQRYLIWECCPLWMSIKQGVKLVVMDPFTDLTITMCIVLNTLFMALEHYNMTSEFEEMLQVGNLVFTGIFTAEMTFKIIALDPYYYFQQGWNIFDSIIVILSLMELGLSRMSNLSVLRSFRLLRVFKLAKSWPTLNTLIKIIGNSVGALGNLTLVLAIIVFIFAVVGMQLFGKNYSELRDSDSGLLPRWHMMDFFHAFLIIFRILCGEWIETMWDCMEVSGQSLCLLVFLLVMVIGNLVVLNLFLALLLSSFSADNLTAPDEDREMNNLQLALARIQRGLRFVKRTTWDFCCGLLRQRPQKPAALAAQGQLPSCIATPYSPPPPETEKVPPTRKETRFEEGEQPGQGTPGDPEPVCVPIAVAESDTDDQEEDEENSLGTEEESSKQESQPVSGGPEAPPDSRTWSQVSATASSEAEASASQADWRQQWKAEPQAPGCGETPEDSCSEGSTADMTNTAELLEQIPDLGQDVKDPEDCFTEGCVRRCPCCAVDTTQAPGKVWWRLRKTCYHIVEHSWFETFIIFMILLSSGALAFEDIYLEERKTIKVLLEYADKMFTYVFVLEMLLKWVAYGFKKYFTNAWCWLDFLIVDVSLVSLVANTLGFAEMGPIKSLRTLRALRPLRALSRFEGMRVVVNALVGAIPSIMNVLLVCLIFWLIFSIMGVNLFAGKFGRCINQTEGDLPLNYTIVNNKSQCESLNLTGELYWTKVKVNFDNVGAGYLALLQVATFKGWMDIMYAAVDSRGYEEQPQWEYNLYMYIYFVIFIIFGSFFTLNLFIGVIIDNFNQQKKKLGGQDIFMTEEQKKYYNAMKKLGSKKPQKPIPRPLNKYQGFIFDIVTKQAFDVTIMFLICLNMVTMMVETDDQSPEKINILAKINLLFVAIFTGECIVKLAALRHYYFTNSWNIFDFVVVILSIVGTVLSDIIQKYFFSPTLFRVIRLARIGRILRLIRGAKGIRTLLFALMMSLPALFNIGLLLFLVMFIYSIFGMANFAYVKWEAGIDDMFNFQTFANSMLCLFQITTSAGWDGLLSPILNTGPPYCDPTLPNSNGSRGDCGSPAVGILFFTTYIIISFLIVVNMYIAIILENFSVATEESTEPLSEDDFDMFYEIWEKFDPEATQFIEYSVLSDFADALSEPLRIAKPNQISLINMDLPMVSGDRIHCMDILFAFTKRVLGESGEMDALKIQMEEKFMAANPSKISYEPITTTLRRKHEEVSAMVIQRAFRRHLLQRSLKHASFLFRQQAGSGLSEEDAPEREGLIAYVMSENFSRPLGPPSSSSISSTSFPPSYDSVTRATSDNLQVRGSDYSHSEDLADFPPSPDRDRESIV
T1 sequence (Q9UQD0 whole entry): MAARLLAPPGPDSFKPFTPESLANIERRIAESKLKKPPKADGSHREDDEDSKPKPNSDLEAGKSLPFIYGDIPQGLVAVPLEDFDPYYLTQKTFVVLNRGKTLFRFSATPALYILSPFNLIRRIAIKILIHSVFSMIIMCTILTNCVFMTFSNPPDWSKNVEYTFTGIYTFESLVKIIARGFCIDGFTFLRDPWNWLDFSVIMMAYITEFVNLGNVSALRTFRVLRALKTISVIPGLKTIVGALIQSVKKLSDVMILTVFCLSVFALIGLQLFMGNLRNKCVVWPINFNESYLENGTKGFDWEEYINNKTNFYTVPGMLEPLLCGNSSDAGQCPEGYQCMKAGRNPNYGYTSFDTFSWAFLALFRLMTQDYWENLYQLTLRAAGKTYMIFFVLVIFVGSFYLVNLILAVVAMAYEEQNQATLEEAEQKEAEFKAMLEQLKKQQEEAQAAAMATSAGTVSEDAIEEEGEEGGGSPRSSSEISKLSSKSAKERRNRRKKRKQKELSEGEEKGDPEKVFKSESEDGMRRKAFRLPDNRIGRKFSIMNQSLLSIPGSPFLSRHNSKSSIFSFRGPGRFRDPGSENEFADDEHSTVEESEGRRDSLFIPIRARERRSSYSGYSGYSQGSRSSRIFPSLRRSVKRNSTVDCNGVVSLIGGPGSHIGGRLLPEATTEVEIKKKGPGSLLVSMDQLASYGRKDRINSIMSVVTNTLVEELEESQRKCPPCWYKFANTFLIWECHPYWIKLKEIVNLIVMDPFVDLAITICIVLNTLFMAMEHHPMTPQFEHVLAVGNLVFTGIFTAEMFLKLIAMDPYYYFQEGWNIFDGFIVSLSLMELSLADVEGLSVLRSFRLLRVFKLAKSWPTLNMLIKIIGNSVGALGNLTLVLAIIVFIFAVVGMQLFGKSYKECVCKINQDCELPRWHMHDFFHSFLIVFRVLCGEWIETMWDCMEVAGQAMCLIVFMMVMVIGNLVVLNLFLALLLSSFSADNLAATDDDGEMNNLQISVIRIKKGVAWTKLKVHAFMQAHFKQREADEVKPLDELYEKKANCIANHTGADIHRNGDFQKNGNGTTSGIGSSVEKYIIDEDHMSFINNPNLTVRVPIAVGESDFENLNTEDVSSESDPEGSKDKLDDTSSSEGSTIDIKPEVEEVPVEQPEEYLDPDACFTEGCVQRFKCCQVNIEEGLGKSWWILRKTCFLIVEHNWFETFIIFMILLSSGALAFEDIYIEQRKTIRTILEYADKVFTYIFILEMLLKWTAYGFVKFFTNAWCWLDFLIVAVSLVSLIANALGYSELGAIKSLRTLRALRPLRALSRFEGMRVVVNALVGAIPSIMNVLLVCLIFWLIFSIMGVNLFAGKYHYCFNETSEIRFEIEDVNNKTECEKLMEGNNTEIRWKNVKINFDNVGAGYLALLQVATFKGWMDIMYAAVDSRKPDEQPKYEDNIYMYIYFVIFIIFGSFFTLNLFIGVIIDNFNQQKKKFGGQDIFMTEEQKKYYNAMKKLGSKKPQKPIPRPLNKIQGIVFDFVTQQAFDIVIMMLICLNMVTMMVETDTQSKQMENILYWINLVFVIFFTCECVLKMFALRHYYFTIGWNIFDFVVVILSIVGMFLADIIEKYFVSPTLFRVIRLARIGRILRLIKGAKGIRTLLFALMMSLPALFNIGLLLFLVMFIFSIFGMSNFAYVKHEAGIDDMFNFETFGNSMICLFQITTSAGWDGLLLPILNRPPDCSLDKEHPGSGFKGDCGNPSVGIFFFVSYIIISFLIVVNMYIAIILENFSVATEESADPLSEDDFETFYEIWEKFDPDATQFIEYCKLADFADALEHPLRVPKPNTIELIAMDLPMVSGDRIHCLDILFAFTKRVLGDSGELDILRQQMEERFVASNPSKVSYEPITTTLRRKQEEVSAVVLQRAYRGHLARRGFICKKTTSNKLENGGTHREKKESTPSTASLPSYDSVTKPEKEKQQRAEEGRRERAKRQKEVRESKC

Row | Compound | pIC50 (NaV1.6 [1]) | pIC50 (NaV1.1 [2]) | pIC50 (NaV1.1 [3]) | pIC50 (NaV1.6 [4]) | pIC50 (NaV1.5)
1 | 3-chloro-4-(1-phenylethylamino)-N-(1,2,4-thiadiazol-5-yl)benzenesulfonamide [Example 142] | 6.97 | 5.00 | 5.49 | 6.73 | 4.67
2 | 5-chloro-2-fluoro-4-((1-(2-fluorophenyl)ethyl)amino)-N-(thiazol-2-yl)benzenesulfonamide [Example 144] | 7.47 | 6.04 | 5.59 | 6.67 | 5.01
3 | O=S(=O)(Nc1nccs1)c1ccc(N[C@H](c2ccccc2)C(F)(F)F)c(Cl)c1 [Example 4, (R)-3-chloro-N-(thiazol-2-yl)-4-((2,2,2-trifluoro-1-phenylethyl)amino)benzenesulfonamide formate] | 7.39 | 5.28 | 5.47 | 6.10 | 5.15
4 | C[C@H](Nc1cc(F)c(S(=O)(=O)Nc2nccs2)cc1Cl)c1cc(Cl)ccc1F [Example 8, (S)-5-chloro-4-((1-(5-chloro-2-fluorophenyl)ethyl)amino)-2-fluoro-N-(thiazol-2-yl)benzenesulfonamide] | 8.00 | 6.38 | 5.79 | 6.86 | 5.27
5 | C[C@H](Nc1ccc(S(=O)(=O)Nc2nccs2)c(F)c1Cl)c1ccccc1F [Example 9, (S)-3-chloro-2-fluoro-4-((1-(2-fluorophenyl)ethyl)amino)-N-(thiazol-2-yl)benzenesulfonamide] | 7.59 | 5.36 | 5.63 | 6.74 | 5.37
6 | C[C@H](Oc1ccc(S(=O)(=O)Nc2nccs2)c(F)c1Cl)c1ccccc1F [Example 10, (S)-3-chloro-2-fluoro-4-(1-(2-fluorophenyl)ethoxy)-N-(thiazol-2-yl)benzenesulfonamide] | 6.89 | 5.26 | 5.79 | 6.34 | 5.63
7 | O=S(=O)(Nc1nccs1)c1cc(Cl)c(OCc2cccc3ccncc23)cc1F [Example 11, 5-chloro-2-fluoro-4-(isoquinolin-8-ylmethoxy)-N-(thiazol-2-yl)benzenesulfonamide] | 7.47 | 5.00 | 4.52 | 6.59 | 4.52
8 | O=S(=O)(Nc1nccs1)c1cc(Cl)c(NCc2ccccc2CN2CCC2)cc1F [Example 16, 4-((2-(azetidin-1-ylmethyl)benzyl)amino)-5-chloro-2-fluoro-N-(thiazol-2-yl)benzenesulfonamide 2,2,2-trifluoroacetate] | 8.40 | 5.66 | 5.27 | 7.54 | 4.63
9 | O=S(=O)(Nc1cscn1)c1cc(Cl)c(NCc2ccccc2CN2CCC2)cc1F [Example 19, 4-((2-(azetidin-1-ylmethyl)benzyl)amino)-5-chloro-2-fluoro-N-(thiazol-4-yl)benzenesulfonamide 2,2,2-trifluoroacetate] | 6.89 | 5.00 | 4.93 | 6.37 | 4.73
10 | O=S(=O)(Nc1cscn1)c1cc(Cl)c(NC2(c3ccccc3)CC2)cc1F [Example 20, 5-chloro-2-fluoro-4-((1-phenylcyclopropyl)amino)-N-(thiazol-4-yl)benzenesulfonamide] | 5.93 | 5.00 | 4.52 | 5.69 | 4.52
11 | C[C@H](Nc1cc(F)c(S(=O)(=O)Nc2cccc(F)n2)cc1Cl)c1ccccc1F [Example 22, (S)-5-chloro-2-fluoro-4-((1-(2-fluorophenyl)ethyl)amino)-N-(6-fluoropyridin-2-yl)benzenesulfonamide] | 6.59 | 5.05 | 5.37 | 5.89 | 5.31
12 | C[C@H](Nc1cc(F)c(S(=O)(=O)Nc2nccs2)cc1F)c1ccccc1F [Example 25, (S)-2,5-difluoro-4-((1-(2-fluorophenyl)ethyl)amino)-N-(thiazol-2-yl)benzenesulfonamide] | 7.24 | 5.60 | 5.73 | 6.76 | 4.99
13 | C[C@H](Oc1cc(F)c(S(=O)(=O)Nc2nccs2)cc1F)c1ccccc1F [Example 26, (S)-2,5-difluoro-4-(1-(2-fluorophenyl)ethoxy)-N-(thiazol-2-yl)benzenesulfonamide] | 6.95 | 5.17 | 5.32 | 6.13 | 5.46
14 | C[C@H](Nc1cc(F)c(S(=O)(=O)Nc2nccs2)c(F)c1)c1ccccc1F [Example 27, (S)-2,6-difluoro-4-((1-(2-fluorophenyl)ethyl)amino)-N-(thiazol-2-yl)benzenesulfonamide] | 7.92 | 6.95 | 6.32 | 7.16 | 5.07
15 | CC[C@@H](Nc1ccc(S(=O)(=O)Nc2ncns2)cc1Cl)c1ccccc1 [Example 31, (R)-3-chloro-4-((1-phenylpropyl)amino)-N-(1,2,4-thiadiazol-5-yl)benzenesulfonamide] | 6.93 | 5.00 | 5.21 | 6.04 | 4.77
16 | CC[C@@H](Nc1cc(F)c(S(=O)(=O)Nc2nccs2)cc1Cl)c1ccccc1 [Example 39, (R)-5-chloro-2-fluoro-4-((1-phenylpropyl)amino)-N-(thiazol-2-yl)benzenesulfonamide] | 6.55 | 5.73 | 5.63 | 6.10 | 5.17
17 | CC[C@H](Nc1cc(F)c(S(=O)(=O)Nc2nccs2)cc1Cl)c1ccccc1 [Example 40, (S)-5-chloro-2-fluoro-4-((1-phenylpropyl)amino)-N-(thiazol-2-yl)benzenesulfonamide] | 7.62 | 6.74 | 6.20 | 6.91 | 5.10
18 | CC[C@H](Nc1cc(F)c(S(=O)(=O)Nc2nccs2)cc1Cl)c1ccccc1F [Example 47, (S)-5-chloro-2-fluoro-4-((1-(2-fluorophenyl)propyl)amino)-N-(thiazol-2-yl)benzenesulfonamide] | 8.00 | 6.94 | 6.09 | 7.05 | 5.19

Now from value to compound, other results behind:

Row | pIC50 (NaV1.6 [1]) | pIC50 (NaV1.1 [2]) | pIC50 (NaV1.1 [3]) | pIC50 (NaV1.6 [4]) | Compound | pIC50 (NaV1.5)
19 | 8.00 | 7.51 | 6.44 | 7.15 | O=S(=O)(Nc1nccs1)c1cc(Cl)c(NC(CC(F)(F)F)c2ccccc2)cc1F (stereo not drawn) [Example 41, 5-chloro-2-fluoro-N-(thiazol-2-yl)-4-((3,3,3-trifluoro-1-phenylpropyl)amino)benzenesulfonamide] | 4.93
20 | 6.52 | 5.17 | 5.25 | 5.52 | C[C@H](Nc1cc(F)c(S(=O)(=O)Nc2nccs2)cc1Cl)C1CCCCC1 [Example 42, (S)-5-chloro-4-((1-cyclohexylethyl)amino)-2-fluoro-N-(thiazol-2-yl)benzenesulfonamide] | 4.84
21 | 7.55 | 5.39 | 5.67 | 6.72 | O=S(=O)(Nc1nccs1)c1cc(Cl)c(NC2(c3ccccc3)CC2)cc1F [Example 43, 5-chloro-2-fluoro-4-((1-phenylcyclopropyl)amino)-N-(thiazol-2-yl)benzenesulfonamide] | 4.95
22 | 6.89 | 5.68 | 5.90 | 6.46 | O=S(=O)(Nc1nccs1)c1cc(Cl)c(NC2(c3ccc(F)cc3)CC2)cc1F [Example 44, 5-chloro-2-fluoro-4-((1-(4-fluorophenyl)cyclopropyl)amino)-N-(thiazol-2-yl)benzenesulfonamide] | 4.52
23 | 7.72 | 6.59 | 6.05 | 6.63 | C[C@H](Nc1cc(F)c(S(=O)(=O)Nc2nccs2)cc1Cl)c1cccc(F)c1 [Example 49, (S)-5-chloro-2-fluoro-4-((1-(3-fluorophenyl)ethyl)amino)-N-(thiazol-2-yl)benzenesulfonamide] | 5.32
24 | 7.60 | 5.99 | 5.49 | 6.58 | CC[C@H](Nc1cc(F)c(S(=O)(=O)Nc2nccs2)cc1Cl)c1ccccc1C [Example 54, (S)-5-chloro-2-fluoro-N-(thiazol-2-yl)-4-((1-(o-tolyl)propyl)amino)benzenesulfonamide] | 4.87
25 | – | 5.00 | 5.62 | – | CC[C@H](Nc1ccc(S(=O)(=O)Nc2nccs2)cc1)c1ccccc1 [Example 84, (S)-4-((1-phenylpropyl)amino)-N-(thiazol-2-yl)benzenesulfonamide] | –
26 | – | 5.70 | 5.39 | – | CCC(c1ccccc1)N(C)c1ccc(S(=O)(=O)Nc2nccs2)cc1Cl (stereo not drawn) [Example 90, 3-chloro-4-(methyl(1-phenylpropyl)amino)-N-(thiazol-2-yl)benzenesulfonamide] | –
27 | 9.00 | – | 5.70 | 9.00 | Cc1c(NCc2ccccc2CN2CCC2)cc(F)c(S(=O)(=O)Nc2ncns2)c1F [Example 330, 4-((2-(azetidin-1-ylmethyl)benzyl)amino)-2,6-difluoro-3-methyl-N-(1,2,4-thiadiazol-5-yl)benzenesulfonamide] | 4.52
28 | 8.70 | – | 5.33 | 7.54 | O=S(=O)(Nc1cscn1)c1cc(Cl)c(NCc2c(F)ccc3cn[nH]c23)cc1F [Example 334, 5-chloro-2-fluoro-4-(((6-fluoro-1H-indazol-7-yl)methyl)amino)-N-(thiazol-4-yl)benzenesulfonamide formate] | 4.52
